# System: Horn fly (Haematobia irritans)
# Assay: Treatment of livestock, control of flying insects (Example 23)
# Assay type: in vivo
# Method: The objective of this test was to evaluate the efficacy of the formulations in repelling flying insects from landing on and disturbing livestock. Ten animals were utilized for each treatment or control, with 120 cc/animal applied for each treatment. The experiment was performed by diluting the formulation to the appropriate concentration and spraying the formulation onto the livestock directly. One group had Ivermectin applied as a standard for comparison. Each group of animals was separated in the pasture by fencing. Counts were made immediately before treatments and then 1 day after treatment and 1 week after treatment. Every 2 weeks there was a retreatment and counts were repeated just prior to retreatment with same count cycle recurring through 2 week periods.
# The flying insect evaluated was the Horn fly (Haematobia irritans).
substance,measurement,setting,value
Ivermectin,Average number of flies landing on the animals,"2-Aug, one day after treatment on August 1 (including Ivermectin group)",4.8
same,Average number of flies landing on the animals,"6-Jul, one day after the initial treatment, 120 cc/animal, ten animals",2.4
same,Average number of flies landing on the animals,"8-Aug, one week after treatment on August 1",62.0
same,Average number of flies landing on the animals,"11-Jul, one week after initial treatment",2.7
same,Average number of flies landing on the animals,"18-Jul, two weeks after initial treatment",41.4
same,Average number of flies landing on the animals,"20-Jul, one day after retreatment on July 19 (except ivermectin)",54.5
same,Average number of flies landing on the animals,"25-Jul, one week after retreatment on July 19 (except ivermectin)",82.7
same,Average number of flies landing on the animals,"31-Jul, two weeks after retreatment on July 19 (except ivermectin)",185.9

# From patent US20080069785A1, “PEST-CONTROL COMPOSITIONS, AND METHODS AND PRODUCTS UTILIZING SAME” (priority 2004, published 2008)
